Laboratory results taken from ChEMBL document CHEMBL1137017, “In vitro antiviral activity and cross-resistance profile of PL-100, a novel protease inhibitor of human immunodeficiency virus type 1” (Antimicrob Agents Chemother, 2007).
pIC50: −log10 of the molar value.

What was measured:
[1] = test system: Human immunodeficiency virus 1; assay: Resistance index, ratio of EC50 for HIV1 with protease 33F/54L/82A/90M mutation to EC50 for wild type HIV1 NL4-3 in HEK293 cells after 48 hrs by replication-deffective luciferase reporter gene-based phenotypic assay; type: functional
[2] = test system: Human immunodeficiency virus 1; assay: Resistance index, ratio of EC50 for HIV1 with protease 46I/88S mutation to EC50 for wild type HIV1 NL4-3 in HEK293 cells after 48 hrs by replication-deffective luciferase reporter gene-based phenotypic assay; type: functional
[3] = test system: Human immunodeficiency virus 1; assay: Resistance index, ratio of EC50 for HIV1 with protease 33F/54L/88S/90M mutation to EC50 for wild type HIV1 NL4-3 in HEK293 cells after 48 hrs by replication-deffective luciferase reporter gene-based phenotypic assay; type: functional
[4] = Cytotoxicity against human MT4 cells after 6 days by MTT assay; type: cell-based
[5] = test system: Human immunodeficiency virus 1; assay: Resistance index, ratio of EC50 for HIV1 with protease 46L/48V/82A/84V mutation to EC50 for wild type HIV1 NL4-3 in HEK293 cells after 48 hrs by replication-deffective luciferase reporter gene-based phenotypic assay; type: functional
[6] = test system: Human immunodeficiency virus 1; assay: Resistance index, ratio of EC50 for HIV1 with protease 46L/50L/54V/82A mutation to EC50 for wild type HIV1 NL4-3 in HEK293 cells after 48 hrs by replication-deffective luciferase reporter gene-based phenotypic assay; type: functional
[7] = test system: Human immunodeficiency virus 1; assay: Resistance index, ratio of EC50 for HIV1 with protease 33F/46L/54V/82A/84V/90M mutation to EC50 for wild type HIV1 NL4-3 in HEK293 cells after 48 hrs by replication-deffective luciferase reporter gene-based phenotypic assay; type: functional
[8] = test system: Human immunodeficiency virus 1; assay: Resistance index, ratio of EC50 for HIV1 with protease 33F/54V/73S/82A/84V/90M mutation to EC50 for wild type HIV1 NL4-3 in HEK293 cells after 48 hrs by replication-deffective luciferase reporter gene-based phenotypic assay; type: functional
[9] = test system: Human immunodeficiency virus 1; assay: Resistance index, ratio of EC50 for HIV1 with protease 46I/47A/84V mutation to EC50 for wild type HIV1 NL4-3 in HEK293 cells after 48 hrs by replication-deffective luciferase reporter gene-based phenotypic assay; type: functional
[10] = test system: Human immunodeficiency virus 1; assay: Resistance index, ratio of EC50 for HIV1 with protease 33F/50V mutation to EC50 for wild type HIV1 NL4-3 in HEK293 cells after 48 hrs by replication-deffective luciferase reporter gene-based phenotypic assay; type: functional
[11] = Selectivity index, ratio of CC50 for human MT4 cells to EC50 for HIV1 NL4-3; type: toxicity, cell-based; settings: read-out: Ratio CC50/EC50
[12] = test system: Human immunodeficiency virus 1; assay: Resistance index, ratio of EC50 for HIV1 with protease 46I/82T/84V mutation to EC50 for wild type HIV1 NL4-3 in HEK293 cells after 48 hrs by replication-deffective luciferase reporter gene-based phenotypic assay; type: functional
[13] = test system: Human immunodeficiency virus 1; assay: Resistance index, ratio of EC50 for HIV1 with protease 33F/54V/82A/84V/90M mutation to EC50 for wild type HIV1 NL4-3 in HEK293 cells after 48 hrs by replication-deffective luciferase reporter gene-based phenotypic assay; type: functional
[14] = test system: Human immunodeficiency virus 1; assay: Resistance index, ratio of EC50 for HIV1 with protease 24I/33F/46I/54L/82A mutation to EC50 for wild type HIV1 NL4-3 in HEK293 cells after 48 hrs by replication-deffective luciferase reporter gene-based phenotypic assay; type: functional
[15] = test system: Human immunodeficiency virus 1; assay: Resistance index, ratio of EC50 for HIV1 with protease 46I/50V/90M mutation to EC50 for wild type HIV1 NL4-3 in HEK293 cells after 48 hrs by replication-deffective luciferase reporter gene-based phenotypic assay; type: functional
[16] = test system: Human immunodeficiency virus 1; assay: Resistance index, ratio of EC50 for HIV1 with protease 24I/33F/54V/82A/84V mutation to EC50 for wild type HIV1 NL4-3 in HEK293 cells after 48 hrs by replication-deffective luciferase reporter gene-based phenotypic assay; type: functional
[17] = test system: Human immunodeficiency virus 1; assay: Resistance index, ratio of EC50 for HIV1 with protease 46I/50V/54V mutation to EC50 for wild type HIV1 NL4-3 in HEK293 cells after 48 hrs by replication-deffective luciferase reporter gene-based phenotypic assay; type: functional
[18] = test system: Human immunodeficiency virus 1; assay: Resistance index, ratio of EC50 for HIV1 with protease 37S/41K/70E mutation to EC50 for wild type HIV1 NL4-3 in HEK293 cells after 48 hrs by replication-deffective luciferase reporter gene-based phenotypic assay; type: functional
[19] = test system: Human immunodeficiency virus 1; assay: Resistance index, ratio of EC50 for HIV1 with protease 46I/50V mutation to EC50 for wild type HIV1 NL4-3 in HEK293 cells after 48 hrs by replication-deffective luciferase reporter gene-based phenotypic assay; type: functional
[20] = test system: Human immunodeficiency virus 1; assay: Resistance index, ratio of EC50 for HIV1 with protease 46L mutation to EC50 for wild type HIV1 NL4-3 in HEK293 cells after 48 hrs by replication-deffective luciferase reporter gene-based phenotypic assay; type: functional
[21] = test system: Human immunodeficiency virus 1; assay: Resistance index, ratio of EC50 for HIV1 with protease 30N/88D/90M mutation to EC50 for wild type HIV1 NL4-3 in HEK293 cells after 48 hrs by replication-deffective luciferase reporter gene-based phenotypic assay; type: functional
[22] = test system: Human immunodeficiency virus 1; assay: Resistance index, ratio of EC50 for HIV1 with protease 46I/54V/82A/84V mutation to EC50 for wild type HIV1 NL4-3 in HEK293 cells after 48 hrs by replication-deffective luciferase reporter gene-based phenotypic assay; type: functional
[23] = test system: Human immunodeficiency virus 1; assay: Resistance index, ratio of EC50 for HIV1 with protease 46L/48V/82A/84V/90M mutation to EC50 for wild type HIV1 NL4-3 in HEK293 cells after 48 hrs by replication-deffective luciferase reporter gene-based phenotypic assay; type: functional
[24] = test system: Human immunodeficiency virus 1; assay: Resistance index, ratio of EC50 for HIV1 with protease 84V/90M mutation to EC50 for wild type HIV1 NL4-3 in HEK293 cells after 48 hrs by replication-deffective luciferase reporter gene-based phenotypic assay; type: functional
[25] = test system: Human immunodeficiency virus 1; assay: Resistance index, ratio of EC50 for HIV1 with protease 32I/46L/47V/84V mutation to EC50 for wild type HIV1 NL4-3 in HEK293 cells after 48 hrs by replication-deffective luciferase reporter gene-based phenotypic assay; type: functional
[26] = test system: Human immunodeficiency virus 1; assay: Resistance index, ratio of EC50 for HIV1 with protease 54V/82A/84V/90M mutation to EC50 for wild type HIV1 NL4-3 in HEK293 cells after 48 hrs by replication-deffective luciferase reporter gene-based phenotypic assay; type: functional
[27] = test system: Human immunodeficiency virus 1; assay: Resistance index, ratio of EC50 for HIV1 with protease 33F/46I/53L/82A/84V mutation to EC50 for wild type HIV1 NL4-3 in HEK293 cells after 48 hrs by replication-deffective luciferase reporter gene-based phenotypic assay; type: functional
[28] = molecular target: Protease (Human immunodeficiency virus 1) (UniProt Q9YQ12); assay: Inhibition of HIV1 3B protease-mediated gag polyprotein processing in H9 cells assessed as decrease in p24 level by Western blotting; type: cell-based
Chain of Protease (Human immunodeficiency virus 1) (Q9YQ12 as listed by the source): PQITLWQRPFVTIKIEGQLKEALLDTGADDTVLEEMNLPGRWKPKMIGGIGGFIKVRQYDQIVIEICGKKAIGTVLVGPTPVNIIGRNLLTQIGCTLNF

[29] = Inhibition of pig pepsin; parameters: species or system Sus scrofa
Cathepsin D = Cathepsin D (Homo sapiens, UniProt P07339); assay: Inhibition of human cathepsin D
Chain of Cathepsin D (P07339 65-162 limits assumed): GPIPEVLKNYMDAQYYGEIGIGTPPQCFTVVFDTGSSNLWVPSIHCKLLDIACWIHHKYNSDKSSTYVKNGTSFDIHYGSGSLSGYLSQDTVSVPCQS
Chain of Cathepsin D (P07339 169-412 limits assumed): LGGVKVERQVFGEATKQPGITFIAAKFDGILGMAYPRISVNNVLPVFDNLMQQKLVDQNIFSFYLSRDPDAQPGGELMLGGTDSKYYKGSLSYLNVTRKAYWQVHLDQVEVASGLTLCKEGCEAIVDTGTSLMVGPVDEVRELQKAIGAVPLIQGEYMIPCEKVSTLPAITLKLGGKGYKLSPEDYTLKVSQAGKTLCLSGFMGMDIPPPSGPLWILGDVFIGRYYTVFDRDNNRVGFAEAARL

## Cc1c(O)cccc1C(=O)N[C@@H](CSc1ccccc1)[C@H](O)CN1C[C@H]2CCCC[C@H]2C[C@H]1C(=O)NC(C)(C)C
[1]
  Ratio EC50: 10.4
[2]
  Ratio EC50: 4.6
[3]
  Ratio EC50: 14.5
[4]
  CC50 at 144 h: 8 µM
[5]
  Ratio EC50: 5.9
[6]
  Ratio EC50: 11.8
[7]
  Ratio EC50: 31.4
[8]
  Ratio EC50: 172.1
[9]
  Ratio EC50: 10.4
[10]
  Ratio EC50: 3.6
[11]
  selectivity ratio: 276
[12]
  Ratio EC50: 1.6
[13]
  Ratio EC50: 21.1
[14]
  Ratio EC50: 8.1
[15]
  Ratio EC50: 19.4
[16]
  Ratio EC50: 31.4
[17]
  Ratio EC50: 12.7
[18]
  Ratio EC50: 1.6
[19]
  Ratio EC50: 1.3
[20]
  Ratio EC50: 1.7
[21]
  Ratio EC50: 42.1
[22]
  Ratio EC50: 8.8
[23]
  Ratio EC50: 43.6
[24]
  Ratio EC50: 12.1
[25]
  Ratio EC50: 7.8
[26]
  Ratio EC50: 33.1
[27]
  Ratio EC50: 11.1

## COC(=O)N[C@H](C(=O)NCCCC[C@@H](CO)N(CC(C)C)S(=O)(=O)c1ccc(N)cc1)C(c1ccccc1)c1ccccc1 [PPL-100]
[1]
  Ratio EC50: 30.3
[2]
  Ratio EC50: 0.4
[28]
  Activity: Dose-dependent effect
[3]
  Ratio EC50: 1.7
[4]
  CC50 at 144 h: 37 µM
[5]
  Ratio EC50: 1.2
[6]
  Ratio EC50: 3.2
[7]
  Ratio EC50: 18.4
[8]
  Ratio EC50: 37.2
[9]
  Ratio EC50: 14.8
[10]
  Ratio EC50: 2.7
[11]
  selectivity ratio: 2310
[12]
  Ratio EC50: 1.2
[13]
  Ratio EC50: 9.6
[14]
  Ratio EC50: 6.4
[15]
  Ratio EC50: 1.4
[16]
  Ratio EC50: 4.2
[17]
  Ratio EC50: 0.5
[29]
  pIC50: < 4.30
[18]
  Ratio EC50: 0.9
[19]
  Ratio EC50: 0.8
[20]
  Ratio EC50: 1.1
[21]
  Ratio EC50: 1.4
[22]
  Ratio EC50: 3.7
[23]
  Ratio EC50: 13.4
[24]
  Ratio EC50: 2.3
Cathepsin D
  pIC50: < 4.30
[25]
  Ratio EC50: 0.6
[26]
  Ratio EC50: 7
[27]
  Ratio EC50: 17.8

## COC(=O)N[C@H](C(=O)N[C@@H](Cc1ccccc1)[C@@H](O)CN(Cc1ccc(-c2ccccn2)cc1)NC(=O)[C@@H](NC(=O)OC)C(C)(C)C)C(C)(C)C [ATAZANAVIR]
[1]
  Ratio EC50: 7.5
[2]
  Ratio EC50: 3.1
[3]
  Ratio EC50: 18.9
[4]
  CC50 at 144 h: 71 µM
[5]
  Ratio EC50: 21.5
[6]
  Ratio EC50: 68.9
[9]
  Ratio EC50: 9.5
[11]
  selectivity ratio: 17800
[13]
  Ratio EC50: 24.7
[15]
  Ratio EC50: 1.2
[17]
  Ratio EC50: 2.4
[18]
  Ratio EC50: 1.4
[19]
  Ratio EC50: 0.4
[20]
  Ratio EC50: 0.9
[22]
  Ratio EC50: 5.8
[23]
  Ratio EC50: 91.6
[25]
  Ratio EC50: 25
[26]
  Ratio EC50: 50.5
[27]
  Ratio EC50: 18.3
